Test results reported in patent publication US7674454B2, “Enzyme-prodrug therapy for prosthetic joint repair” (Innovata Limited, priority 2004, dated 2010).

Experiments:
loosened hip prosthesis = experiment: Phase-1 clinical study: intra-articular vector, prodrug, then cement injection; conditions: Patient 1, twelve hours after prodrug injection
Method: After 48 hours, to allow transduction of target cells and expression of the nitroreductase transgene, CB1954 (at a dosage of 24 mg m^−2) is injected intra-articularly.

interface cells [1] = experiment: NTR/CB1954 cell killing in the presence of, or after transient exposure to, contrast medium; type: cell-based, human; conditions: results not shown
Excerpt: The effect of contrast medium (iotrolan) on HAdV5-transduction of interface cells was investigated with Ad.CMV.LacZ. Transducibility of the cells increases with the concentration of HAdV-5 vector. However, the contrast medium has restraining influence on the transduction efficiency. With higher concentrations of iotrolan, the HAdV-5 vector concentration has less effect on gene transfer efficiency. […] The effect of iotrolan on the transduction is statistically significant (p<0.001). Furthermore, differences between cells from different individuals (n=6) have been observed. To evaluate the effect of contrast medium on cell killing by NTR/CB1954, the previously described experiment for the efficiency of cell killing was repeated in the presence of contrast medium. […] This incompatibility may be due to the presence of iodine within the contrast media. Screening of all available contrast media may allow determination of a contrast medium compatible with viral transduction.
The influence of transient exposure to contrast medium on the transduction of interface cells was investigated. Interface cells were exposed to contrast medium for 0 to 120 minutes and the period between washing away of the contrast medium and performing the NTR/CB1954 cell killing approach was varied. […]

interface cells [2] = experiment: Transduction and cell killing assay: CTL102 infection, then CB1954, WST metabolic activity readout; type: cell-based, human
Method: Cell viability was then determined using a metabolic activity assay.
For all experiments described, interface cells were used. Interface tissue was removed from the periprosthetic space during revision-surgery by an orthopedic surgeon and collected in sterile phosphate buffered saline (PBS). Connective tissue and fat were removed thoroughly and the interface tissue was digested for at least two hours at 37° C. using collagenase 1A (1 mg/ml; Sigma, St Louis, Mo., USA). Cells were then harvested by filtering the tissue/collagenase substance through a 200 μm filter (NPBI, Emmer-Compascuum, The Netherlands). The cells were cultured in 75 cm^2 flasks (Cellstar, Greiner, Alphen aan de Rijn, The Netherlands) with Iscove's modified Dulbecco's medium (IMDM; Biowitthaker, Verviers, Belgium), supplemented with glutamax (GibcoBRL, Paisley, UK), penicillin and streptomycin (Boehringer Mannheim, Germany), and 10% fetal calf serum (FCS; GibcoBRL, Paisley, UK) at 37° C. and 5% CO2.
Before each experiment interface cells were detached from the flasks using 0.25% trypsin (GibcoBRL, Paisley, UK). The cells were counted in a bürker counter and death cells were excluded by trypan blue. Cells were seeded in a 96 wells-plate (flat bottom) at a density of 5,000 cells per well. Cells were incubated overnight to allow attachment to the bottom. […]
Hereafter the absorbance at 415 nm was measured.

[3] = Djeha et al, 2001; cited from earlier work
interface cells [4] = experiment: Effect of contrast medium on HAdV-5 transduction of interface cells; type: cell-based, human; conditions: contrast medium concentration of 50%, 4 hours; p<0.001
Method: Interface cells were seeded in 96-wells plates. After overnight incubation cells were infected with Ad.CMV.LacZ (concentrations of 0, 25, 100, and 200 pfu/cell) in IMDM/20% FCS, 50 μl per well. Fifty μl Iotrolan (Isovist) in 0.9% NaCl was added in concentrations of 0, 25, 50, and 100%. (When diluted in the culture medium these concentrations decreased to 0, 12.5, 25, and 50%.) Four hours after infection, the cells were washed twice with IMDM and incubated for the rest of the day in IMDM/10% FCS at 37° C. and 5% CO2. The Ad.CMV.LacZ transduced cells were cultured for three days after removal of the vector and contrast medium. Subsequently, the cells were fixed and stained for β-galactasidase activity. The transduction rate was assessed as described above.

interface cells [5] = experiment: Effect of contrast medium on interface cells, WST-1 viability; type: cell-based, human; conditions: 4 hours exposure, 0-50% contrast medium, viability after 3 more days; p=0.563
Method: Interface cells were seeded in 96-wells plates. Into each well 50 μl of IMDM/20% FCS and 50 μl of a solution containing contrast medium and 0.9% NaCl in various concentrations (0, 12.5, 25, and 50% contrast medium) were added. The contrast medium used was the low-osmolarity, nonionic dimer iotrolan (Isovist; Schering, Berlin, Germany). After four hours of exposure to the contrast medium, the cells were washed twice and incubated in IMDM/10% FCS. The cells were cultured for three more days, changing the culture medium every day. On day four, cell viability was determined with the WST-1 cell viability assay kit (Roche, Mannheim, Germany) according to the manufacturers protocol.

Compound | nausea (loosened hip prosthesis) | cell killing by NTR/CB1954 (interface cells [1]) | killing of interface cells (interface cells [2]; 200 virus pfu/cell and CB1954 50 μM, cells from two revision surgery patients) | dose dependence of killing (interface cells [2]; CTL102 0-200 IU/cell, CB1954 0-50 μM, cells from both patients) | tolerability in man [3] | transduction of interface cells by Ad.CMV.LacZ (interface cells [4]) | effect on viability of interface cells (interface cells [5])
NC(=O)c1cc(N2CC2)c([N+](=O)[O-])cc1[N+](=O)[O-] [CB1954, 5-(aziridin-1-yl)-2,4-dinitrobenzamide] | 1 WHO grade | cells are not killed | 90% | virus and CB1954-dose dependent killing | well-tolerated in man | – | –
CN(C(=O)CC(=O)N(C)c1c(I)c(C(=O)NC(CO)C(O)CO)c(I)c(C(=O)NC(CO)C(O)CO)c1I)c1c(I)c(C(=O)NC(CO)C(O)CO)c(I)c(C(=O)NC(CO)C(O)CO)c1I (stereo not shown) [iotrolan] | – | – | – | – | – | none of the cells were transduced | does not affect the viability of the cells at any concentration
